Test results taken from US20240269139A1, “COMPOUNDS FOR TARGETED PROTEIN DEGRADATION OF KINASES” (DANA-FARBER CANCER INSTITUTE, INC., priority 2020, published 2024).
Where two headings read alike, the source gives them in different places.

Key:
Assay type in all cases: cell-based
[1] = tested on: protein kinases (human kinome); details: for logFC GSK3B: experiment wp017
[2] = molecular target: T1, protein kinases (human kinome) (Homo sapiens, UniProt Q13163); details: experiment wp071
T1 sequence (Q13163 1-448): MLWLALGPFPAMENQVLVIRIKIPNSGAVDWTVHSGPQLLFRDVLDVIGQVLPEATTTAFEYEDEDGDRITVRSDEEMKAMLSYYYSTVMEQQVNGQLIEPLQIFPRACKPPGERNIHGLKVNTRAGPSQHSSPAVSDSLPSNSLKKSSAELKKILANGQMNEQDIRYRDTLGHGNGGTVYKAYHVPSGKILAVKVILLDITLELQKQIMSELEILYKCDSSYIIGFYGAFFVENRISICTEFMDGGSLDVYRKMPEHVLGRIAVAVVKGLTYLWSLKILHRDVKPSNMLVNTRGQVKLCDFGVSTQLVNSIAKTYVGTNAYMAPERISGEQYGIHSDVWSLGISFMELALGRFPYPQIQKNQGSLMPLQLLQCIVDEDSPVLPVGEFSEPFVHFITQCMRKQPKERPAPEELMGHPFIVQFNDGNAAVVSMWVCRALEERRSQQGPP

[3] = molecular target: protein kinases (human kinome) (Homo sapiens, UniProt P53667); details: LIMK1 (P53667-1), experiment wp071
[4] = molecular target: T2, protein kinases (human kinome) (Homo sapiens, UniProt O95835); details: LATS1 O95835; experiment wp071
T2 sequence (O95835 1-1130): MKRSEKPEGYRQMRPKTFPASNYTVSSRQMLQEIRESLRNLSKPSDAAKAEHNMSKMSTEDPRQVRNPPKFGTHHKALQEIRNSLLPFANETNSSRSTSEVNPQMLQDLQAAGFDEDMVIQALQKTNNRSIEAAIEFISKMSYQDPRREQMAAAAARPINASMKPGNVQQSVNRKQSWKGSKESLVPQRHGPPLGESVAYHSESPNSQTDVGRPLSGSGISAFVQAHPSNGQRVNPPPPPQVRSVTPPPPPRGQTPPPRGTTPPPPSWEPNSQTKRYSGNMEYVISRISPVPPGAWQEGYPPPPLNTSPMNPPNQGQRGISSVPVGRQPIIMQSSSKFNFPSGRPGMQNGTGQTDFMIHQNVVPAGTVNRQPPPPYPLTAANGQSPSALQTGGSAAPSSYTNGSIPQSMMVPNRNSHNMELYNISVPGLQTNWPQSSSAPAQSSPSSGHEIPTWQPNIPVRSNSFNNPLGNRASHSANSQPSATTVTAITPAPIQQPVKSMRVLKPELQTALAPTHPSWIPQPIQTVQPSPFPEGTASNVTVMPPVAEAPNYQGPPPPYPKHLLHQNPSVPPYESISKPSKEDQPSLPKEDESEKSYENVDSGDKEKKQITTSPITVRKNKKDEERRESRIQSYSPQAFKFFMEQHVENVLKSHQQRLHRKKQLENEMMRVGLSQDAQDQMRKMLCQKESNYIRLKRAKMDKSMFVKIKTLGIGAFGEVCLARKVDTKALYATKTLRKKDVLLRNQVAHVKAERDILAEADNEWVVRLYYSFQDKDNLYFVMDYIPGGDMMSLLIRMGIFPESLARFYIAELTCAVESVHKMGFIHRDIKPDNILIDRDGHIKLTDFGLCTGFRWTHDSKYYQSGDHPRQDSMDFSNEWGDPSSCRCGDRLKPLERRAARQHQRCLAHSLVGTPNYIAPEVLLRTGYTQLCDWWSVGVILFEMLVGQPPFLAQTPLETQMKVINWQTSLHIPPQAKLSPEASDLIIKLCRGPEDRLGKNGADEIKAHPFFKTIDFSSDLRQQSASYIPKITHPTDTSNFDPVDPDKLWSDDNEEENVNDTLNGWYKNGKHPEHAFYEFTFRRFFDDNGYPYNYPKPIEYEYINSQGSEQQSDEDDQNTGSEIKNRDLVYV

[5] = molecular target: protein kinases (human kinome) (Homo sapiens, UniProt P49674); details: CSNK1E P49674; experiment wp071
[6] = molecular target: protein kinases (human kinome) (Homo sapiens, UniProt P51451)
[7] = molecular target: protein kinases (human kinome) (Homo sapiens, UniProt P41240); details: experiment wp071
[8] = molecular target: protein kinases (human kinome) (Homo sapiens, UniProt P42684)
[9] = molecular target: T3, protein kinases (human kinome) (Homo sapiens, UniProt Q13043)
T3 sequence (Q13043 1-487): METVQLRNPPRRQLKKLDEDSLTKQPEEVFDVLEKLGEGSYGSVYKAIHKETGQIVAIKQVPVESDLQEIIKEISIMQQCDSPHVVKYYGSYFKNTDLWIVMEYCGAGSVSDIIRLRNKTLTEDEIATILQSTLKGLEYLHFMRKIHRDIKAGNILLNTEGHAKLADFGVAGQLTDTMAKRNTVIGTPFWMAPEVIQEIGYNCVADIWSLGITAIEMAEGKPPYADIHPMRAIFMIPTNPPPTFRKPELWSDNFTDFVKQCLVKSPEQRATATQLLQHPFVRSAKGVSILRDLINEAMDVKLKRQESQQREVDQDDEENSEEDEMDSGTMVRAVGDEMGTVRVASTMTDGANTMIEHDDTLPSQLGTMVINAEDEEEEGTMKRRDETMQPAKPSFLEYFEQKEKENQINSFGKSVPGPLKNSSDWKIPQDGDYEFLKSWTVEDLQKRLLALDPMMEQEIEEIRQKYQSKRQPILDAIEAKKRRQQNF

[10] = molecular target: T4, protein kinases (human kinome) (Homo sapiens, UniProt Q8TBX8); details: PIP4K2C Q8TBX8-1; experiment wp017
T4 sequence (Q8TBX8 1-421): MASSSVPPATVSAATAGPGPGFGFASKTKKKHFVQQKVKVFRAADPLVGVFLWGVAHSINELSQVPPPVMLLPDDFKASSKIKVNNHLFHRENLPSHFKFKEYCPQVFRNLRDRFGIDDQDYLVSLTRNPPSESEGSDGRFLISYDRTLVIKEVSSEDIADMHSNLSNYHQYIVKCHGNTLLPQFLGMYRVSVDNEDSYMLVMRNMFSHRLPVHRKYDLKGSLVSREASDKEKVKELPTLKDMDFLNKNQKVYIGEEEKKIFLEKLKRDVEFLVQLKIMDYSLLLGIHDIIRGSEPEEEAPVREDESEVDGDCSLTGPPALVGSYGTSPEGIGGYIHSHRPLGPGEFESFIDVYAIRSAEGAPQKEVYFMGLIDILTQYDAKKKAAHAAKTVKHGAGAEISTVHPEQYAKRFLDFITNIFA

[11] = molecular target: protein kinases (human kinome) (Homo sapiens, UniProt P49840); details: GSK3A P49840; experiment wp017
[12] = molecular target: protein kinases (human kinome) (Homo sapiens, UniProt Q9P1W9)
[13] = molecular target: protein kinases (human kinome) (Homo sapiens, UniProt P48730)
[14] = molecular target: protein kinases (human kinome) (Homo sapiens, UniProt O94921)
[15] = molecular target: T5, protein kinases (human kinome) (Homo sapiens, UniProt O60285); details: NUAK1 (O60285), experiment wp017
T5 sequence (O60285 1-661): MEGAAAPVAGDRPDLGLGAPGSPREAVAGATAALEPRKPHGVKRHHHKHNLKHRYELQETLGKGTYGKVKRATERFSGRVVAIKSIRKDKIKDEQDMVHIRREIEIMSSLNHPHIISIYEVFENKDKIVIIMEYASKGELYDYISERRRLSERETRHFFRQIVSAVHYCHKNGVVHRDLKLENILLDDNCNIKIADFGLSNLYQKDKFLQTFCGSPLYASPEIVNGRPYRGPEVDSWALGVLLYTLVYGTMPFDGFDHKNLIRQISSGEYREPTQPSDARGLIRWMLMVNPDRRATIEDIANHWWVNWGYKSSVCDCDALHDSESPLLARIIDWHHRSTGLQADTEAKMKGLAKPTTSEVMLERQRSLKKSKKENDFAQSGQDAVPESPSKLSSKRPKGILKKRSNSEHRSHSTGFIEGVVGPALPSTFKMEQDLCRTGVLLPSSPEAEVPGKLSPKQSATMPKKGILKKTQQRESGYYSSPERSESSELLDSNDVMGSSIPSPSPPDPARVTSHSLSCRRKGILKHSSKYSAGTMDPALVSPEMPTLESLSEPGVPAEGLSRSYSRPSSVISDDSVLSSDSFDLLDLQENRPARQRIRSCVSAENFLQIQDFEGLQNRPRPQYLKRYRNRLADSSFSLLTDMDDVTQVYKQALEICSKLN

[16] = molecular target: T6, protein kinases (human kinome) (Homo sapiens, UniProt O94768)
T6 sequence (O94768 1-372): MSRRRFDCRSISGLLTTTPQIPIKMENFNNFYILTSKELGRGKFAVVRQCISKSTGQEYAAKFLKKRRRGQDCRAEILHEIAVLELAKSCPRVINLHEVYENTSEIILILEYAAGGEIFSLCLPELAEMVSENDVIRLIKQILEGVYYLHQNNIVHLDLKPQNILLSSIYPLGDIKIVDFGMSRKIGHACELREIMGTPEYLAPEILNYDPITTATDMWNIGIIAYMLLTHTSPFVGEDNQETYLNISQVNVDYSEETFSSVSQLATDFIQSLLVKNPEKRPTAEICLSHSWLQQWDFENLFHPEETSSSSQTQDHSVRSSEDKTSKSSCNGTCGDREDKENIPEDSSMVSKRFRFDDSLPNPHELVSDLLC

protein kinases (human kinome) (Homo sapiens, UniProt P49840), sequence (P49840 whole entry): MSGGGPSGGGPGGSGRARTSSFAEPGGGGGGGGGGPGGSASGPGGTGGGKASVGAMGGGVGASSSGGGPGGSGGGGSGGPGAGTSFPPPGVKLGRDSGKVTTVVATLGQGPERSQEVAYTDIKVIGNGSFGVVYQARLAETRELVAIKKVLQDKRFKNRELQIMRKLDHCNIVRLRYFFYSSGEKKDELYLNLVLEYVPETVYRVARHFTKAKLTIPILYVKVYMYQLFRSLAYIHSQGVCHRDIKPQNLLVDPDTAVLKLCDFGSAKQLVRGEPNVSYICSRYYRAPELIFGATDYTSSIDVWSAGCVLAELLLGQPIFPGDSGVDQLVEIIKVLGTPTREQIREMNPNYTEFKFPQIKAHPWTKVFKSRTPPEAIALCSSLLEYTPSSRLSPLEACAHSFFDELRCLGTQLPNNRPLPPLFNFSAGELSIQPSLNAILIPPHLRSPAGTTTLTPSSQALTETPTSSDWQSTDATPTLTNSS
protein kinases (human kinome) (Homo sapiens, UniProt P49674), sequence (P49674 whole entry): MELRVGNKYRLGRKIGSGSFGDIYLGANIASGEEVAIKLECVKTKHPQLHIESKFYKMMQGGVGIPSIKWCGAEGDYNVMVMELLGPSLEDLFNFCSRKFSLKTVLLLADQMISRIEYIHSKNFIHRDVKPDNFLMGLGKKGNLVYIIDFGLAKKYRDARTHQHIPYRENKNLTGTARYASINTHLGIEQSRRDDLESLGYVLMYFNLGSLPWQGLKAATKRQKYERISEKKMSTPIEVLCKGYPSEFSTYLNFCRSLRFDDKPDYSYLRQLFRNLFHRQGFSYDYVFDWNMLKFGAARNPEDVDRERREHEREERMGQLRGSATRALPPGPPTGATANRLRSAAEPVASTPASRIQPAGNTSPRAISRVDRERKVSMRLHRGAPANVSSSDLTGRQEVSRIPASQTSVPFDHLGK
protein kinases (human kinome) (Homo sapiens, UniProt P48730), sequence (P48730 whole entry): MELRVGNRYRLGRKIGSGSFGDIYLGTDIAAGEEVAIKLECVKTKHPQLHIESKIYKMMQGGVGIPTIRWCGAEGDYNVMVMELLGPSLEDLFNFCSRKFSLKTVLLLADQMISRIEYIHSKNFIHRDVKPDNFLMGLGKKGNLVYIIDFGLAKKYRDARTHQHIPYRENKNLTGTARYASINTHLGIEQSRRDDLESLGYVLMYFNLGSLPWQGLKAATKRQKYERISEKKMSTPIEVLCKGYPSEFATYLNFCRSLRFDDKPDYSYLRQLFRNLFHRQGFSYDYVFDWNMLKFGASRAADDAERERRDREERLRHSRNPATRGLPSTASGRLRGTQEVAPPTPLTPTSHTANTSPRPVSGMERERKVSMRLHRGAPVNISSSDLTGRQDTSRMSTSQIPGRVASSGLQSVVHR
protein kinases (human kinome) (Homo sapiens, UniProt Q9P1W9), sequence (Q9P1W9 whole entry): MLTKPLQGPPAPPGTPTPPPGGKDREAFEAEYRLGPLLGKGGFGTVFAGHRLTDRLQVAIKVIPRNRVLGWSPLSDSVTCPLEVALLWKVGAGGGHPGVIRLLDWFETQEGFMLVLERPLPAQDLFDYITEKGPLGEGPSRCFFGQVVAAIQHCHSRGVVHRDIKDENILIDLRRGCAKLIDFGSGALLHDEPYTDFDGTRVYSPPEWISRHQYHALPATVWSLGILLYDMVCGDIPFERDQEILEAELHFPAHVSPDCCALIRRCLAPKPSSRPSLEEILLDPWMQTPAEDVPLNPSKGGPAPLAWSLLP
protein kinases (human kinome) (Homo sapiens, UniProt O94921), sequence (O94921 whole entry): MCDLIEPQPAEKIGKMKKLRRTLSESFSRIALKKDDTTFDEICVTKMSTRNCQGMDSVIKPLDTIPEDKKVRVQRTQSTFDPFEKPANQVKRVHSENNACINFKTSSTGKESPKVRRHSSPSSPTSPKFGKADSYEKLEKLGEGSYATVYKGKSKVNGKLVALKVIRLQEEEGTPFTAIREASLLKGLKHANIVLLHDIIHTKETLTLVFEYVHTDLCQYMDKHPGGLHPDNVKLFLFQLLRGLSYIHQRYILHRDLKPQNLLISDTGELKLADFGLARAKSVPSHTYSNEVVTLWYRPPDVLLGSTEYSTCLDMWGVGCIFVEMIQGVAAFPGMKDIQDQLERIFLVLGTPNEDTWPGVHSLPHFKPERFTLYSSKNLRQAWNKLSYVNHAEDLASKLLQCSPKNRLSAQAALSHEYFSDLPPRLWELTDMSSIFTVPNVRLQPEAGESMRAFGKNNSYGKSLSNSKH
protein kinases (human kinome) (Homo sapiens, UniProt P42684), sequence (P42684 whole entry): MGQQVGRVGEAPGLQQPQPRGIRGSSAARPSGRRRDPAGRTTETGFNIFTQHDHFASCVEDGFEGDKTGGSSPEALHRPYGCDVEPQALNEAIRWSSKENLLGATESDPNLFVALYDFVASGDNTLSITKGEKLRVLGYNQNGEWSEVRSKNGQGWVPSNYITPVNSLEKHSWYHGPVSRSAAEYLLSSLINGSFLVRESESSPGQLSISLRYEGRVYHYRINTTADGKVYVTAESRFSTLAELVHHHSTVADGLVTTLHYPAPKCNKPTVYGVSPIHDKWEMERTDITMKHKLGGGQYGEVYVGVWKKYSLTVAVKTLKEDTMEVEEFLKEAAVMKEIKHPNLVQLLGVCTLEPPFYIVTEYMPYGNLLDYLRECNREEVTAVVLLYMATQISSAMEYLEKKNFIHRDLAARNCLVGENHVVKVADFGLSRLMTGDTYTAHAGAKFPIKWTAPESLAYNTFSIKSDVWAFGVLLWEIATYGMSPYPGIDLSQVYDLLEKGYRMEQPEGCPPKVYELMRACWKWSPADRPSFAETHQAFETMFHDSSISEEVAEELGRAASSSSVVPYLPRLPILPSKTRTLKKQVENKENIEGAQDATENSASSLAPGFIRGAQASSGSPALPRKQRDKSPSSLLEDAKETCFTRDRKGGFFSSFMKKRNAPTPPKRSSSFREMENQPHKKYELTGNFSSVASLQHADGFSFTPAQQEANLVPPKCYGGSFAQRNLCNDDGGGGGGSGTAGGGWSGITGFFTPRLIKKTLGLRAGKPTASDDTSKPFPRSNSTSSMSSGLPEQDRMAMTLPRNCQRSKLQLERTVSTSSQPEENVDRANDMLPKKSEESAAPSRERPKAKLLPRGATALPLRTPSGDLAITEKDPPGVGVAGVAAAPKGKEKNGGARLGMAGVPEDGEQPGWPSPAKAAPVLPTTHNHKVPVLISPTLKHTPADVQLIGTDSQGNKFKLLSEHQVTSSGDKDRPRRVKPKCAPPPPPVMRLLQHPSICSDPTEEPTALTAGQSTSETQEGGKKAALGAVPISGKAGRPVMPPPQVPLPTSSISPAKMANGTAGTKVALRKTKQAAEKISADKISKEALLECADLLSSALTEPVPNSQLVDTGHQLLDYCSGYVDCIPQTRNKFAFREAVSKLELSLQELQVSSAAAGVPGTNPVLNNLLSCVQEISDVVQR
protein kinases (human kinome) (Homo sapiens, UniProt P51451), sequence (P51451 whole entry): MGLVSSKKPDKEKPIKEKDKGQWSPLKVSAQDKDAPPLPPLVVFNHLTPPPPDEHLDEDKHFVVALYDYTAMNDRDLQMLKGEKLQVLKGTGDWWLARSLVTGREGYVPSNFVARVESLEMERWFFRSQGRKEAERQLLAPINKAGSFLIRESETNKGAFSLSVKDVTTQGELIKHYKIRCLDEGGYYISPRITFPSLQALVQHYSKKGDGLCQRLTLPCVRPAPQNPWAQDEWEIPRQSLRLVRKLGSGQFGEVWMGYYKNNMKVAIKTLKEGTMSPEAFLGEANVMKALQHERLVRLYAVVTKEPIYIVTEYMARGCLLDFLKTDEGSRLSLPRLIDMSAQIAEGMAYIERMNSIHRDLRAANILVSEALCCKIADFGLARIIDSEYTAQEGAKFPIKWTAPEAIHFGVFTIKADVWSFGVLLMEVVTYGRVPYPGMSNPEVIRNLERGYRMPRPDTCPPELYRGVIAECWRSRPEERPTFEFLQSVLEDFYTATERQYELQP
protein kinases (human kinome) (Homo sapiens, UniProt P53667), sequence (P53667 whole entry): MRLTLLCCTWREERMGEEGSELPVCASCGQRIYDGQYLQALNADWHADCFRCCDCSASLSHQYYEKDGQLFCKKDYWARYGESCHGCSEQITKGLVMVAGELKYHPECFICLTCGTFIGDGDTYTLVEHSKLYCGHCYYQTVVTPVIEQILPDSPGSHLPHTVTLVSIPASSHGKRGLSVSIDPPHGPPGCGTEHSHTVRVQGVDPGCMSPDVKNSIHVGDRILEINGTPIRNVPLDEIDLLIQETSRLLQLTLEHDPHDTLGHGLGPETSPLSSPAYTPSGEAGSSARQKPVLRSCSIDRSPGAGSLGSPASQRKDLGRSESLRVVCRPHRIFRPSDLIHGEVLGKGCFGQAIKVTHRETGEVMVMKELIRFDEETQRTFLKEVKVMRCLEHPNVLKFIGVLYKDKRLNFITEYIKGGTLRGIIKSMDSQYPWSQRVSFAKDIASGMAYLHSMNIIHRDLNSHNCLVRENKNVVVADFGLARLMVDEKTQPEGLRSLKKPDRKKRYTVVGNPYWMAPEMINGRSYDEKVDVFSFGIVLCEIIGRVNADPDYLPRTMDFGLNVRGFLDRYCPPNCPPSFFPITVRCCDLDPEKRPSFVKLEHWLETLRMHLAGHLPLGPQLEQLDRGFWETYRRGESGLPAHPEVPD
protein kinases (human kinome) (Homo sapiens, UniProt P41240), sequence (P41240 whole entry): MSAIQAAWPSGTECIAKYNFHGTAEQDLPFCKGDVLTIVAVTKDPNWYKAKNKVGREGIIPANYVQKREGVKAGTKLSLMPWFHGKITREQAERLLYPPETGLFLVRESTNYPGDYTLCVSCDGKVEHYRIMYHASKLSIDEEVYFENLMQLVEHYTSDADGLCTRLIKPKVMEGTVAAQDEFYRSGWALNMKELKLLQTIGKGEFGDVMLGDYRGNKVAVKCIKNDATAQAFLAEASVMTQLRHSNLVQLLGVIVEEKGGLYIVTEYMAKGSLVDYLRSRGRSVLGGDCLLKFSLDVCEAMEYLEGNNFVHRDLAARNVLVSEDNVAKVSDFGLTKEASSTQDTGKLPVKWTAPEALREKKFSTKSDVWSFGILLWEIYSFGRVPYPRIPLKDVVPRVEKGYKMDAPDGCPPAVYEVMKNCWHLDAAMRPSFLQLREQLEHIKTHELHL

## Nc1ncnc2c1c(-c1ccc(Oc3ccccc3)cc1)nn2[C@H]1CC[C@H](N2CCN(CCCCCCNC(=O)COc3cccc4c3C(=O)N(C3CCC(=O)NC3=O)C4=O)CC2)CC1 (stereo partly drawn) [SB1.G.200]
[1]; ABL1 (P00519-2), experiment wp071
  logFC ABL1: −1.646
[1]; Accession P06241-2, experiment wp071
  logFC FYN: −1.777
[1]; Accession P12931-2, experiment wp071
  logFC of SRC: −2.174
[1]; FYN P06241-2, experiment wp071
  logFC FYN: −1.777
[1]; LCK, accession P06239-3, experiment wp071, direction of change down
  logFC LCK: −1.275
[1]; SRC (P12931-2) protein abundance, degrader vs DMSO, down
  logFC: −2.174
[1]; experiment wp071
  logFC ABL1 (P00519-2): −1.646
[1]; experiment wp071, direction of change down
  logFC LCK (P06239-3): −1.275
[2]; MAP2K5 (Q13163-1)
  logFC: −1.433
[2]
  logFC of MAP2K5 (Q13163-1): −1.433
[3]; direction down
  logFC LIMK1: −0.775
[3]; down
  logFC LIMK1: −0.775
[4]
  logFC: −1.403
  logFC LATS1: −1.403
[5]
  logFC: −0.76
  logFC CSNK1E: −0.76
[6]; BLK (P51451), direction down, experiment wp071
  logFC BLK: −1.525
[6]; Experiment wp071, down
  logFC of BLK (P51451): −1.525
[7]; Accession P41240
  logFC of CSK: −3.011
[7]; CSK (P41240), down
  logFC CSK: −3.011
[8]; ABL2 (P42684) protein abundance, degrader vs DMSO, down
  logFC: −2.103
[8]; experiment wp071
  logFC ABL2 (P42684): −2.103

## Nc1ncc(-c2ccc(S(=O)(=O)N(CCCNC(=O)CCOCCOCCOCCOCCOCCNc3cccc4c3C(=O)N(C3CCC(=O)NC3=O)C4=O)C3CC3)cc2F)cc1-c1ccc2c(c1)CCNC2=O (stereo not drawn) [WH.9533.153]
[1]; Accession P49841-2, direction down
  logFC GSK3B: −1.317
[1]; GSK3B P49841-2
  logFC GSK3B: −1.317
[9]; Experiment wp017
  logFC of STK4 (Q13043-1): −0.4936
[9]; STK4 (Q13043-1), experiment wp017
  logFC: −0.4936
[10]
  logFC: −0.7144
[11]
  logFC: −0.4833
  logFC GSK3A: −0.4833
[12]; Experiment wp017
  logFC of PIM2 (Q9P1W9): −0.4936
[12]; PIM2 (Q9P1W9), experiment wp017
  logFC: −0.4936
[13]; Accession P48730-1, experiment wp017, direction down
  logFC CSNK1D: −0.7788
[13]; Experiment wp017
  logFC of CSNK1D (P48730-1): −0.7788
[14]; CDK14 (O94921-1), experiment wp017
  logFC: −0.4637
[14]; Experiment wp017
  logFC of CDK14 (O94921-1): −0.4637
[15]
  logFC: −1.367
[15]; direction down
  logFC: −1.367
[16]; Experiment wp017, direction down
  logFC STK17B (O94768): −0.7595
[16]; STK17B (O94768), experiment wp017
  logFC: −0.7595
